Data reported in patent publication US20190201419A1, “COMPOUND AND METHOD FOR THE TREATMENT AND DIAGNOSIS OF NEURODEGENERATIVE CONDITIONS” (Swansea University, priority 2013, published 2019).

Key:
Lxrα = biological target: T1, Lxrα (Homo sapiens, UniProt Q13133); experiment: Lxrα luciferase reporter assay in SN4741 neural cells; assay type: cell-based, mouse; details: 10 μM, 24 h
T1 construct: expressed in transfected cells; host or cells: SN4741 mouse neuronal cell line
T1 sequence (Q13133 1-447): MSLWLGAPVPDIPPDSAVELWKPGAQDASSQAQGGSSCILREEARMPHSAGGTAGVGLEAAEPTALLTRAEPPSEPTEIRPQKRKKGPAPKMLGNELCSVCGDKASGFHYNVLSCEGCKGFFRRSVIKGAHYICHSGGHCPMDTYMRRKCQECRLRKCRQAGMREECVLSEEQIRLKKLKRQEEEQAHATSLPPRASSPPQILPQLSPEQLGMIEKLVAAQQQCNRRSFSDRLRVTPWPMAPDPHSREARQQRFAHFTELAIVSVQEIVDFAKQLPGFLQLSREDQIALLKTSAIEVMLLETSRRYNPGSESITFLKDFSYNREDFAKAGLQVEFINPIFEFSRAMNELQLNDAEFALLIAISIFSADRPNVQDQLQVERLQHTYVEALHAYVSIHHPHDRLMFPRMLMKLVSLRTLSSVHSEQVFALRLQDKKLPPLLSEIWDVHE
From the text: (§1) Luciferase Reporter Assay.

Lxrβ = biological target: T2, Lxrβ (Homo sapiens, UniProt P55055); experiment: Lxrβ luciferase reporter assay in SN4741 neural cells; assay type: cell-based, mouse; details: for Lxr activational capacity in combination with 22R-HC: 10 μM acid + 10 μM 22R-HC; for Lxrβ activation, luciferase activity (fold activation): SN4741 cells, 10 μM, 24 h
T2 construct: expressed in transfected cells; host or cells: SN4741 mouse neuronal cell line
T2 sequence (P55055 1-460): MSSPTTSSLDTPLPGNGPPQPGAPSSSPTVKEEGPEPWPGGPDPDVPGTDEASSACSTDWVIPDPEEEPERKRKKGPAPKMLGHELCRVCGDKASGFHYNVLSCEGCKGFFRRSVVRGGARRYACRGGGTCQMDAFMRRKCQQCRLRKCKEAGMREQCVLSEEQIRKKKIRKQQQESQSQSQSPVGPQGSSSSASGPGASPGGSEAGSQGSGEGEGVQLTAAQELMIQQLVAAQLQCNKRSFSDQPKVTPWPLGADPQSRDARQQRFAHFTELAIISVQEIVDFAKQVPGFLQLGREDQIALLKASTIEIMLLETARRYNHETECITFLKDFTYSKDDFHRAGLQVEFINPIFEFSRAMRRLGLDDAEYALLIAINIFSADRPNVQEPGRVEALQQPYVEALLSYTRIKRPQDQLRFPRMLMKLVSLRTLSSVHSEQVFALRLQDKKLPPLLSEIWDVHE
From the text: as §1

[1] = system: Islet1+ oculomotor neurons; experiment: Islet1+ cells in mouse E11.5 brain primary cultures; assay type: cell-based; details: for Number of Islet1+ cells / Concentration giving significant difference from vehicle in Islet1+ cells: wild type cultures; for Concentration giving significant difference from vehicle in Islet1+ cells: p<0.05
In short: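 E11.5 mouse brain cells were plated on poly-D-lysine at 150,000 cells/cm^2 in serum-free N2 medium and treated for 3 DIV. After PFA fixation they were immunostained for cleaved caspase-3, Islet-1, TH, GABA, Brn3a, Nkx6.1 or ChAT. Marker-positive cells were counted at 20× in eight fields per well, three wells per experiment, across three experiments.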

active caspase 3+ cells = experiment: Active caspase 3+ cells in mouse E11.5 brain primary cultures; assay type: cell-based; details: for Concentration giving significant difference from vehicle in active caspase 3+ cells: p<0.05; for Number of active caspase-3+ cells: wt cultures, 3β,7α-diHCA, 3βH,7O-CA, 25-HC at 10 μM, toxic acids at low concentrations
Method: (§2) Primary Brain Cultures. Brains from E11.5 mice were manually dissected, plated on poly-D-lysine (150,000 cells/cm^2) and grown in serum-free N2 media consisting of 1:1 mixture of F12 and DMEM with 10 ng/mL insulin, 100 μg/mL apo-transferrin, 100 μM putrescine, 20 nM progesterone, 30 nM selenium, 6 mg/mL glucose, and 1 mg/mL BSA. Cells were treated for 3 days in vitro (DIV) with the compounds of interest, fixed with 4% PFA and processed for staining using appropriate antibodies.
(§3) Antibodies and Detection Procedures. Cells were fixed in 4% PFA, washed in PBS and blocked in 5% normal goat serum/PBS for 1 h at room temperature. Primary antibodies were diluted in PBS (pH 7.4), 0.3% Triton X-100, 1% BSA and incubations were carried out overnight at +4° C. or at room temperature for 2 h. The antibodies used were anti-:BrdU (1:400; Abeam), Islet-1 (1:100: Developmental Studies Hybridoma Bank), cleaved caspase-3 (Aspt 75) (1:100; Cell Signaling Technology), tyrosine hydroxylase (TH; 1:1000; Pel-Freeze) GABA (1:1,000; Sigma), Bm3a (1:250; Millipore), Nkx6.1 (1:200; Novus Biologicals), choline acetyltransferase (ChAT; 1:500; Millipore) and appropriate secondary antibodies (Jackson ImmunoResearch or Alexa). Cells positive for the corresponding marker were counted directly at the microscope at a magnification of 20×. Cells were counted in every well, in eight consecutive fields (going from one side of the well to the other, passing through the center), in three different wells per experiment and in three different experiments per condition. Random pictures of the wells were taken for every condition to document the result, and representative pictures were subsequently selected to represent the quantitative data. Photos were acquired with a Zeiss Axioplan microscope and a Hamamatsu camera C4742-95 using the Openlab software.

[2] = system: Islet1+ oculomotor neurons; experiment: In utero injection into the cerebral aqueduct of E11.5 mice; assay type: in vivo, mouse; details: for Number of Islet+ oculomotor neurons in vivo: injected at E11.5, analyzed at E13.5
From the text: Animals for in-utero injections and tissue preparation. Female wild-type CD-1 mice ([…]; Charles River Breeding Laboratories) were housed, bred, and treated according to the guidelines of the European Communities Council (directive 86/609/EEC) and the Society for Neuroscience (www.sfr.org/handbook), and all experiments were approved by the local ethical committee. Ethical approval for CD-1 mice experimentation was granted by Stockholm Norra Djurförsökselisks Nämnd number N154/06, N273/11 and N370/09, For embryo analyses, wild type CD-1 mice were mated overnight, and noon of the day the plug was considered E0.5. Embryos were dissected out of the uterine horns in ice-cold PBS, fixed in 4% paraformaldehyde (PFA) for 4 h to overnight, cryoprotected in 15-30% sucrose, frozen in Tissue-Tek Optimum Cutting Temperature (OCT) compound (Sakura Fine-Tek) on dry ice, and stored at −80° C. until use. Serial coronal 14-μm sections of the brain were obtained on a cryostat.
Immunohistochemical analysis of sections. Ten sets of 14 μm serial coronal sections were cut on a cryostat. No. 1 and 6 sets were subjected to immunohistochemistry. Sections were pre-incubated for 1 h in blocking solution followed by incubation at 4° C. overnight with following primary antibodies: anti-TH (1:750, Pel-Freeze), anti-Islet-1 (1:100; Developmental Studies Hybridoma Bank), anti-cleaved caspase-3 (Asp175) (1:100; Cell Signaling Technology). After washing, slides were incubated for 1-2 h at room temperature with the appropriate fluorophore-conjugated (Cy2-, Cy5-, 1:300, Jackson Laboratories; Alexa488-, 555-, and 647-, 1:1000, Invitrogen) secondary antibodies. Confocal pictures were taken with a Zeiss LSM5 Exciter or LSM700 microscope.
In utero intraventricular injections. E11.5 pregnant females were deeply anesthetized using Isofluorane (IsoFlo®, Abbott Labs) and the uterine horns were accessed through an abdominal incision. 1 μL, of the different cholestenoic acids studied (5 mM) or vehicle solution (isopropanol, 50% v/v) was injected into the cerebral aqueduct. […] Embryos were analyzed 48 h later.

[3] = system: TH+ dopamine neurons, GABAergic or red nucleus neurons; Nkx6.1+ cells; experiment: Other cell types in mouse E11.5 brain primary cultures; assay type: cell-based
Method: as §2, §3

SMILES: CC(CCC[C@@H](C)[C@H]1CC[C@H]2[C@@H]3[C@H](O)C=C4C[C@@H](O)CC[C@]4(C)[C@H]3CC[C@]12C)C(=O)O (stereo partly drawn) [3β,7α-diHCA, 3β,7α-dihydroxycholest-5-en-26-oic acid]
- Lxrα activation, luciferase activity (fold activation) (Lxrα): have the ability to activate both Lxrs
- Lxr activational capacity in combination with 22R-HC (Lxrβ): No additive effect was observed
- Lxrβ activation, luciferase activity (fold activation) (Lxrβ): have the ability to activate both Lxrs
- Rescue of loss of Islet1+ cells induced by 2 μM 3β,7β-diHCA or 3β-HCA ([1]; 10 μM): reversed the loss of Islet1+ cells
- Effect on Islet1+ cells in Lxrα−/−β−/− cultures ([1]; cultures from Lxrα−/−β−/− mice): eliminated
- Number of Islet1+ cells [1]: increased the number of Islet1+ oculomotor cells in the cultures
- Concentration giving significant difference from vehicle in Islet1+ cells [1]: ≥ 5 µM
- Effect on Islet1+ cells with Lxr antagonist GGPP ([1]; wt cultures, 10 μM GGPP): blocked by the Lxr antagonist GGPP
- Reduction of neuronal cell death (activated caspase 3) induced by 2 μM 3β,7β-diHCA or 3β-HCA (active caspase 3+ cells; 10 μM): reduced the neuronal cell death
- Effect on active caspase-3+ cells with GGPP (active caspase 3+ cells; 10 μM GGPP, toxic acids at 2 μM): completely blocked by co-incubation with the Lxr inhibitor GGPP
- Concentration giving significant difference from vehicle in active caspase 3+ cells (active caspase 3+ cells): ≥ 10 µM
- Number of active caspase-3+ cells (active caspase 3+ cells): decreased the number of active caspase-3+ cells
- Effect of co-injection on the reduction of oculomotor neurons by 3β-HCA ([2]; co-injection with 3β-HCA): this effect was eliminated by co-injection of 3β,7α-diHCA
- Number of Islet+ oculomotor neurons in vivo [2]: an increase in the number of Islet+ oculomotor neurons
- Total number of Nkx6.1+ cells [3]: neither 3β,7α-diHCA nor 3β-HCA altered the total number of Nkx6.1+ cells
- Number of other midbrain neurons (TH+ dopamine, GABAergic, red nucleus) ([3]; data not shown): did not affect the number of other midbrain neurons

SMILES: CC(CCC[C@@H](C)[C@H]1CC[C@H]2[C@@H]3CC=C4C[C@@H](O)CC[C@]4(C)[C@H]3CC[C@]12C)C(=O)O (stereo partly drawn) [3β-HCA, 3β-hydroxycholest-5-en-26-oic acid]
- Lxrα activation, luciferase activity (fold activation) (Lxrα): activates Lxr
- Lxr activational capacity in combination with 22R-HC (Lxrβ): No additive effect was observed
- Lxrβ activation, luciferase activity (fold activation) (Lxrβ): activates Lxr
- Number of Islet1+ cells [1]: caused the loss of Islet1+ cells in the cultures
- Concentration giving significant difference from vehicle in Islet1+ cells [1]: ≥ 2 µM
- Surviving cells in cultures (active caspase 3+ cells; 10 μM): no surviving cells were detected
- Concentration at which toxicity is initiated (active caspase 3+ cells; mouse, primary brain cultures from E11.5 mouse embryos, 3 days): 1000 nM
- Concentration giving significant difference from vehicle in active caspase 3+ cells (active caspase 3+ cells): ≥ 2 µM
- Number of active caspase-3+ cells (active caspase 3+ cells): increased the number of active caspase-3+ cells
- Number of Islet+ oculomotor neurons in vivo [2]: the number of oculomotor neurons was reduced
- Total number of Nkx6.1+ cells [3]: neither 3β,7α-diHCA nor 3β-HCA altered the total number of Nkx6.1+ cells
